Patent publication US8163795B2, “Chroman derivatives, medicaments and use in therapy” (Marshall Edwards, Inc., priority 2004, dated 2012)
Read-outs that look alike come from different tables or passages of the source.

Tests used:
[1] = tested on: 4405 melanoma cell line; test: Proliferation assay (MTT); format: cell-based; settings: Table 15; melanoma 4405
Procedure, shortened: (§1)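 Cells grown at 37° C, 5% CO2 in medium with 10% FCS, then exposed to test compounds for 5 days. Proliferation read by MTT reduction over 3-4 hrs; IC50 taken from semi-log plots of % control proliferation against log dose.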

[2] = tested on: A2780 (Ovarian); test: Proliferation assay (MTT); format: cell-based; settings: Homo sapiens, Table 2.1
Procedure, shortened: as §1

[3] = tested on: CCRF-CEM (Leukemic); test: Proliferation assay (MTT); format: cell-based; settings: Homo sapiens, CCRF-CEM
Procedure, shortened: as §1

[4] = tested on: DU145 (Prostate); test: Proliferation assay (MTT); format: cell-based; settings: Homo sapiens, DU-145, Table 2.1
Procedure, shortened: as §1

[5] = tested on: HCT-15 (Colorectal); test: Proliferation assay (MTT); format: cell-based; settings: Homo sapiens; Table 2.1; Colorectal HCT-15
Procedure, shortened: as §1

[6] = tested on: HT-29 (Colorectal); test: Proliferation assay (MTT); format: cell-based; settings: Homo sapiens, Colorectal HT-29
Procedure, shortened: as §1

[7] = tested on: HTB-138 (Glioma); test: Proliferation assay (MTT); format: cell-based; settings: Table 2.1; Glioma HTB-138
Procedure, shortened: as §1

[8] = tested on: IGR-3 (Melanoma); test: Proliferation assay (MTT); format: cell-based
Procedure, shortened: as §1

[9] = tested on: LNCaP (Prostate); test: Proliferation assay (MTT); format: cell-based; settings: Homo sapiens, Table 2.1
Procedure, shortened: as §1

[10] = tested on: MCF-7 breast cancer cell line; test: Proliferation assay (MTT); format: cell-based; settings: Homo sapiens, MCF7; Table 2.1; Breast MCF-7
Procedure, shortened: as §1

[11] = tested on: MM96L melanoma cell line; test: Proliferation assay (MTT); format: cell-based; settings: Homo sapiens, Table 15
Procedure, shortened: as §1

[12] = tested on: NCI-H23 (Lung); test: Proliferation assay (MTT); format: cell-based; settings: Homo sapiens, Table 2.1
Procedure, shortened: as §1

[13] = tested on: NCI-H460 (Lung); test: Proliferation assay (MTT); format: cell-based; settings: Homo sapiens
Procedure, shortened: as §1

[14] = tested on: PC3 prostate cancer cell line; test: Proliferation assay (MTT); format: cell-based
Procedure, shortened: as §1

[15] = tested on: RM melanoma cell line; test: Proliferation assay (MTT); format: cell-based; settings: Table 15
Procedure, shortened: as §1

[16] = tested on: SKMe128 melanoma cell line; test: Proliferation assay (MTT); format: cell-based; settings: Table 15
Procedure, shortened: as §1

[17] = tested on: MDA-MB-468 breast cancer cell line; test: Proliferation assay (MTT); format: cell-based; settings: Homo sapiens, Breast MDA-MB-468, read-out: IC50
[18] = tested on: MM200 melanoma cell line; test: Proliferation assay (MTT); format: cell-based; settings: read-out: IC50
[19] = tested on: A2058 melanoma cell line; test: Proliferation assay (MTT); format: cell-based; settings: Homo sapiens
[20] = HMC and HHC pharmacokinetics, oral, human patients; format: in vivo; settings: plasma
Procedure: Human patients were orally dosed with 200 mg of either HMC or HHC. For each challenged patient, blood was taken over a 6 hour period and the results averaged to characterise the plasma pharmacokinetics.

[21] = tested on: MEL-RM melanoma cells (TRAIL sensitive); test: Apoptosis incidence in melanoma cells; format: cell-based
[22] = tested on: Mel-RM melanoma cell line; test: HMC combination with gemcitabine (synergy); format: cell-based; settings: for IC50: Table 9, single agent
Procedure: IC50 values were determined for each cell line. Cells were seeded in 96-well plates at an appropriate cell density as determined from growth kinetics analysis and cultured for 5 days in the absence and presence of the test compounds. Cell proliferation was assessed after the addition of 20 μl of 3-4,5 dimethylthiazol-2,5-diphenyl tetrazolium bromide (MTT, 2.5 mg/ml in PBS, Sigma) for 3-4 hrs at 37° C. according to manufacturer's instructions. IC50 values were calculated from semi-log plots of % of control proliferation on the y-axis against log dose on the x-axis.
3-D model analysis of the cytotoxic interaction between drug A and drug B enables the representation of predicted inhibitory effect of two drugs in combination in 3 dimensions to reveal actual regions of synergy or antagonism. The 3D synergy plots are based on a theory of “Theretical Additivity” (TA) as outlined by Kanzawa et al (Int. J. Cancer 71, 311-319 (1997)). Theoretical Additivity was calculated from the cytotoxicities of drug A and drug B as monotherapies using the following formula which assumes the drugs are mutually exclusive inhibitors: […]
The TA is calculated for each combination of drug concentrations and subtracted from the observed experimental effect for each combination to give a measurement of synergisitic action.
HMC synergy with gemcitabine was assessed either in combination over 5 days exposure or in sequence (HMC→gemcitabine) against the Mel-RM melanoma cell line. It was difficult to assess for synergisitic toxicity using a change in IC50 as a measure of synergy due to HMC toxicity as monotherapy (Table 9). […] Evidence of synergy using the HMC-gemcitabine combination was further assessed using the HMC→gemcitabine sequence (24 hr exposure to each compound in sequence) against the melanoma cell line Mel-RM. Using change in IC50 to assess for synergy it was noted that HMC at concentrations of 2 and 1 μM markedly chemosensitised the Mel-RM cells to gemcitabine by >1000 fold. HMC-induced chemosensitisation of Mel-RM cells to gemcitabine was confirmed using 3D analysis of the data.

[23] = human, po, humans dosed orally with 200 mg

For `COc1ccc(C2c3ccc(O)cc3OCC2c2ccc(O)cc2)cc1` (stereo not shown) [Compound 1, 3-(4-hydroxyphenyl)-4-(4-methoxyphenyl)chroman-7-ol], which IC50 [1] is on record?
The IC50 was 1.46 ± 0.18 µM.

And the IC50 [2]?
Its IC50 is 1.58 ± 0.59 µM.

What about the IC50 ([3]; Table 2.1, Leukemic CCRF-CEM) of the same compound?
The IC50 was 1.9 µM.

And the IC50 ([3]; Table 2.2, Leukaemia CCRF-CEM)?
Its IC50 is 2 ± 0.97 µM.

What about the IC50 [4] of the same compound?
The IC50 was 3.78 µM.

What about the IC50 [5] of the same compound?
The IC50 was 37.8 ± 33 µM.

What about the IC50 ([6]; HT-29, Table 2.1) of the same compound?
The IC50 was 3.7 ± 1.4 µM.

What about the IC50 ([6]; HT-29, Table 2.2) of the same compound?
Its IC50 is 5.4 ± 1.8 µM.

What about the IC50 [7] of the same compound?
Its IC50 is 1.9 ± 0.27 µM.

What about the IC50 ([8]; Table 2.1, Melanoma IGR-3) of the same compound?
Its IC50 is 0.53 ± 0.02 µM.

And the IC50 ([8]; Table 15, melanoma IgR3)?
Its IC50 is 0.51 ± 0.08 µM.

And the IC50 [9]?
Its IC50 is 4.52 µM.

And the IC50 [10]?
The IC50 was 7.15 ± 7 µM.

What about the IC50 [11] of the same compound?
Its IC50 is 1.31 ± 0.38 µM.

What about the IC50 [12] of the same compound?
The IC50 was 3.75 ± 2.5 µM.

And the IC50 ([13]; NCI-H460, Table 2.1, Lung NCI-H460)?
Its IC50 is 2.23 ± 0.15 µM.

What about the IC50 ([13]; NCI-H460, Table 2.2, NSC Lung NCI-H460) of the same compound?
Its IC50 is 2.8 ± 2 µM.

What about the IC50 ([14]; Table 2.1) of the same compound?
Its IC50 is 2.9 ± 0.92 µM.

And the IC50 ([14]; Table 2.2)?
Its IC50 is 2.5 ± 1 µM.

What about the IC50 [15] of the same compound?
The IC50 was 1.4 ± 1.6 µM.

What about the IC50 [16] of the same compound?
The IC50 was 0.68 ± 0.16 µM.

And the IC50 ([17]; MDA-MB-468, Table 2.1)?
The IC50 was 1.1 ± 0.35 µM.

What about the IC50 ([17]; MDA-MB-468, Table 2.2) of the same compound?
The IC50 was 2.8 ± 4.2 µM.

What about the IC50 ([18]; Table 2.1, Melanoma MM200) of the same compound?
The IC50 was 0.7 ± 0.03 µM.

And the IC50 ([18]; Table 2.2, Melanoma MM200)?
The IC50 was 1.07 ± 0.5 µM.

What about the IC50 ([18]; Table 15, melanoma MM200, monotherapy) of the same compound?
Its IC50 is 1.13 ± 0.52 µM.

And the IC50 ([19]; A2058, Table 2.1, Melanoma A2058)?
The IC50 was 1.2 ± 0.65 µM.

And the IC50 ([19]; A2058, Table 15, melanoma A2058)?
Its IC50 is 1.42 ± 0.48 µM.

And the Cmax [20, 23]?
Its Cmax is 0.513 µg/mL.

And the Tmax [20, 23]?
Its Tmax is 2.17 h.

What about the t1/2 ([20]; humans dosed orally with 200 mg) of the same compound?
The t1/2 was 3.99 h.

What about the half-life ([20]; human patients, 200 mg oral, initial results) of the same compound?
Its half-life is 3.99 h.

What about the “Percent Apoptosis” value ([21]; 24 hr exposure, 1 uM) of the same compound?
Its value is 0%.

And the “Percent Apoptosis” value ([21]; 24 hr exposure, 2 uM)?
The value was 8%.

What about the “Percent Apoptosis” value ([21]; 24 hr exposure, 4 uM) of the same compound?
The value was 25%.

And the “Percent Apoptosis” value ([21]; 24 hr exposure, 8 uM)?
The value was 39%.

What about the “Percent Apoptosis” value ([21]; 24 hr exposure, 20 uM) of the same compound?
The value was 38%.

And the “Percent Apoptosis” value ([21]; 48 hr exposure, 1 uM)?
The value was 1.5%.

What about the “Percent Apoptosis” value ([21]; 48 hr exposure, 2 uM) of the same compound?
Its value is 8%.

And the “Percent Apoptosis” value ([21]; 48 hr exposure, 4 uM)?
Its value is 22%.

What about the “Percent Apoptosis” value ([21]; 48 hr exposure, 8 uM) of the same compound?
The value was 38%.

What about the “Percent Apoptosis” value ([21]; 48 hr exposure, 20 uM) of the same compound?
The value was 30%.

And the IC50 ([22]; 120 h, 5 days exposure, read-out: IC50, Combined (monotherapy))?
Its IC50 is 0.51 µM.

And the “Change Factor (HMC first)” value ([22]; Gemcitabine block, HMC 1 uM 24 hr then gemcitabine 24 hr)?
Its value is greater than 1000.

And the “Change Factor (HMC first)” value ([22]; Gemcitabine block, HMC 2 uM 24 hr then gemcitabine 24 hr)?
Its value is greater than 100.

And the “chemosensitisation of Mel-RM cells to gemcitabine (change in IC50)” value ([22]; HMC 2 and 1 μM, HMC→gemcitabine sequence)?
Its value is greater than 1000 fold.

And the IC50 ([22]; 24 hr exposure, read-out: IC50, 24 hr (monotherapy))?
Its IC50 is 27.8 µM.

What about the “Change Factor (HMC first)” value ([22]; upper block of Table 9, HMC 1 uM first, sequence) of the same compound?
Its value is greater than 1000.

And the “Change Factor (HMC first)” value ([22]; upper block of Table 9, HMC 2 uM first, sequence)?
The value was greater than 1000.
